We go through two compounds from patent US11448964B2, “Coating compositions for use with an overcoated photoresist” (Rohm and Haas Electronic Materials Korea Ltd., priority 2016, dated 2022).

Molecules are shown by their SMILES.

This data set in a line: Solubility of thermal acid generators in organic solvents (super-saturated solution, shaken 16 hours, filtered, solid content by Thermal Gravimetric Analysis). Type of data set: physicochemical. The conditions noted are these: room temperature, TGA; for Solubility in HBM (solid content of filtered solution): 2-hydroxyisobutyric acid methyl ester (HBM); for Solubility in EL (solid content of filtered solution): ethyl lactate (EL); for Solubility in PGME (solid content of filtered solution): propylene glycol methyl ether (PGME).

Turning to `Cc1ccccn1` [Example 1, 2-methylpyridin-1-ium 4-methylbenzenesulfonate], the “Solubility in HBM (solid content of filtered solution)” value was determined as 20 wt. %, the “Solubility in EL (solid content of filtered solution)” value came out at 29 wt. % and the “Solubility in PGME (solid content of filtered solution)” value came out at 27 wt. %.

On to `COc1ccncc1` [Example 2, 4-methoxypyridin-1-ium 4-methylbenzenesulfonate], for which the “Solubility in HBM (solid content of filtered solution)” value came out at 18 wt. %, the “Solubility in EL (solid content of filtered solution)” value came to 32 wt. % and the “Solubility in PGME (solid content of filtered solution)” value worked out at 26 wt. %.
